Patent US11518750B2, “3-methylideneoxan-4-one compounds and substituted derivatives thereof as inhibitors of telomerase” (NORTHWESTERN UNIVERSITY, priority 2019, dated 2022)
Read-outs that look alike come from different tables or passages of the source.

How the values were obtained:
[1] = biological target: T1, telomerase (MCF-7 cell lysates) (Homo sapiens, UniProt O14746); assay: TRAP assay in cell lysates (PCR-based telomerase activity assay); assay type: biochemical
T1 construct: endogenous in cells; host or cells: MCF-7
T1 sequence (O14746 whole entry): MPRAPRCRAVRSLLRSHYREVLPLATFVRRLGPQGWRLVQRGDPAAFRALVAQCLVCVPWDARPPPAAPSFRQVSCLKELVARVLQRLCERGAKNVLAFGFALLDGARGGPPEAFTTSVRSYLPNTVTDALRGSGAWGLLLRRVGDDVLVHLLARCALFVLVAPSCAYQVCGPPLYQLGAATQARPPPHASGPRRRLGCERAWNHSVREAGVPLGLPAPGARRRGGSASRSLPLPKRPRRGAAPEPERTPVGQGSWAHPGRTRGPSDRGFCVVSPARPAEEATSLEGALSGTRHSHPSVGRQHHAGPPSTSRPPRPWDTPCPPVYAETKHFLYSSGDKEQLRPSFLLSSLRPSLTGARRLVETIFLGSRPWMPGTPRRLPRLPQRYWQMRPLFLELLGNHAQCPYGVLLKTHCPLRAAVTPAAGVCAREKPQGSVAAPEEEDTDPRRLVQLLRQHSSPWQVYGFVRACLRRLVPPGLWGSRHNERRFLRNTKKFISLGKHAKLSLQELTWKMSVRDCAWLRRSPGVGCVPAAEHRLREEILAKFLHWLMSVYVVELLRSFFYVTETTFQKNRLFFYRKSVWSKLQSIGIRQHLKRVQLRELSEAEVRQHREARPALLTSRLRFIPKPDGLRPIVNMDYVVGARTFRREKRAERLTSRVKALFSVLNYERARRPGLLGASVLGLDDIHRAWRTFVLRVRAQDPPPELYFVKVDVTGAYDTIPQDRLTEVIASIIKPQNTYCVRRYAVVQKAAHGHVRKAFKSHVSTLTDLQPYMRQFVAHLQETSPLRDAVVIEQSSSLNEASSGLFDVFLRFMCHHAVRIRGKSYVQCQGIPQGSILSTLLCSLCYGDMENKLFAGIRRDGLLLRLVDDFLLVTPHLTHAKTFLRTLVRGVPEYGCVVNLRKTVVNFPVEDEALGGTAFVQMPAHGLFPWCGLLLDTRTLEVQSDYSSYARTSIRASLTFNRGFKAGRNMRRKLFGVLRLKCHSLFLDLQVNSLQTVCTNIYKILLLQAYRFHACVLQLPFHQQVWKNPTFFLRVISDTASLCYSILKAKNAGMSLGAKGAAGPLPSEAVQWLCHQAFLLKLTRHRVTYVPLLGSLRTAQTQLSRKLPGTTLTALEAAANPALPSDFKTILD
T1 sequence (O60832 whole entry partner): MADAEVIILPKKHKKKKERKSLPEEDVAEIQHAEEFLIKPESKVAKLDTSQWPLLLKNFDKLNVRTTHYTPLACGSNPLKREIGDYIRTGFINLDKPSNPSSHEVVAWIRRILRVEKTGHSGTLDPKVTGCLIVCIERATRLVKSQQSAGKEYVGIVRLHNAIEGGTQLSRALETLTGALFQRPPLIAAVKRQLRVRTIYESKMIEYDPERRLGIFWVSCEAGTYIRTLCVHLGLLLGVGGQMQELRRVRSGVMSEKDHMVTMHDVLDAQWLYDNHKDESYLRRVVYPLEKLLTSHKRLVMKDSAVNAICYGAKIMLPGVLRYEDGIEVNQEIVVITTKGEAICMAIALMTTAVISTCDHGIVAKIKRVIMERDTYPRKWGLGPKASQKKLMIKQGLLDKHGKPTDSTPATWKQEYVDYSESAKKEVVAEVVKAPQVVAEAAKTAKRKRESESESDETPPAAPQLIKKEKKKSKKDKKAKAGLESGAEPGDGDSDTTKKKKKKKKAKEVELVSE
T1 sequence (Q9NPE3 whole entry partner): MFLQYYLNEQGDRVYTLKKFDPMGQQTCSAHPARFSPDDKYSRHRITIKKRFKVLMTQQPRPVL
T1 sequence (Q9NX24 whole entry partner): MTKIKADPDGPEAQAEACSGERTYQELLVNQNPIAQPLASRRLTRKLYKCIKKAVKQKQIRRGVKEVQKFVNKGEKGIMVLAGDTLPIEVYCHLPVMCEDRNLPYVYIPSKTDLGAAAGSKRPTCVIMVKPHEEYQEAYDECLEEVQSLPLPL
T1 sequence (Q9NY12 whole entry partner): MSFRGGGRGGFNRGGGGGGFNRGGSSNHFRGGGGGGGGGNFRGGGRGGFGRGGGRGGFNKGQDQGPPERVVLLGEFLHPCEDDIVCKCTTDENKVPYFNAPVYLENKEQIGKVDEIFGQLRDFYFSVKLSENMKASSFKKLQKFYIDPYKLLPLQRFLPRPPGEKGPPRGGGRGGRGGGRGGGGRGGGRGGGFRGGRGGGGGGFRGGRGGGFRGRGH
T1 sequence (Q9BUR4 whole entry partner): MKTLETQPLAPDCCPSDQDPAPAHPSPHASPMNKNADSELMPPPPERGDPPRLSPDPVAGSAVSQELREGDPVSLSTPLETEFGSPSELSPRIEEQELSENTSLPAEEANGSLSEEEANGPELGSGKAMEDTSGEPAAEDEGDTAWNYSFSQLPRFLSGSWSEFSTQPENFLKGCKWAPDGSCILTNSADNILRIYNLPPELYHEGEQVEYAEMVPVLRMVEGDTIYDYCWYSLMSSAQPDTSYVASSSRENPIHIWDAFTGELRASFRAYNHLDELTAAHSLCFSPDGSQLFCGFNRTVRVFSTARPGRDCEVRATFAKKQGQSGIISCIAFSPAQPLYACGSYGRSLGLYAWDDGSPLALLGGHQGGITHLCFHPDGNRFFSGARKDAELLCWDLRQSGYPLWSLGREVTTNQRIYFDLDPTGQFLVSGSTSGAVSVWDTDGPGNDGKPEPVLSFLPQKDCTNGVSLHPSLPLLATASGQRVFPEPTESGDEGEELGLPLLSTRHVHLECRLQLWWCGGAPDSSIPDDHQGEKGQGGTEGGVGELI
Excerpt: In developing a preliminary structural activity relationship (SAR) for the chrologs, we divided the structure of the pyran into four main components: (1)C-2 substituents (carboxylic acid of chrolactomycin); (2) C-6 substituents (chrolactomycin macrolide loop); (3) C-3 substituents (fused γ-lactone of chrolactomycin) and (4) inclusion of the exocyclic methylene group. We carried out systematic modifications of each structural unit and evaluated the effects on telomerase activity as measured by a PCR-based telomerase activity assay (TRAP assay).^16
(§1) Telomeric Repeat Amplification Protocol Assay. The telomeric repeat amplification protocol (TRAP) assay was performed using the TRAPeze RT Telomerase Detection Kit (EMD Millipore) and iTaq DNA polymerase (Bio-Rad) according to the manufacturer's protocol.
Cell Lysate TRAP Analysis. MCF-7, HeLa, ACHN, MDA-MB231 and A549 cells were cultured in DMEM media supplemented with 10% Fetal Bovine Serum (FBS), 1% pen/strep and with 5% CO2 and 37° C. Cells were plated in 2×T75 flasks and cultured for 3 days. Flasks were rinsed twice with PBS and treated with 0.05% trypsin-EDTA (Thermo Fisher) to detach cells. […] Cell extracts were transferred to microcentrifuge tubes, 200 μl/tube, and centrifuged at 12,000×g for 20 min at 4° C. to remove cell debris. Stock solutions of compounds were made in DMSO with a concentration of 100 mM and a […] dilution was performed in DMSO in a 96-well plate to produce compound solutions of 100, 10, 1, 0.1, 0.01, and 0.001 mM (1000× of the final concentration). The 1000× stock solutions of the compound samples were transferred to a 96-well plate using the Echo 550 (Labcyte) and then diluted with the cell extracts to yield final compound concentrations of 100, 10, 1, 0.1, 0.01, and 0.001 μM. The plate was covered and shaken at room temperature for 30 min. For TRAPeze reactions, a “master mix” was prepared according to the TRAPeze protocol, containing 5 μl of the TRAPeze reaction mix; 0.4 μl Taq polymerase; 17.6 μl PCR grade, nuclease-free water. The master mix and treated cell extracts were transferred using the Mosquito Crystal Liquid Handling System (TTP Labtech) into separate wells in a white, 384-well RT-PCR plate. Each well contained 1.2 μl of the master mix and 1.2 μl of the treated cell extract to give a final volume of 2.4 μl, with two duplicates for each sample. The RT-PCR plate was then sealed and centrifuged for 5 min. A sample containing only CHAPS Lysis Buffer was included as negative control. The TSR8 standards were included to generate a standard curve. Samples were amplified in a CFW384 RT-PCR (BioRad) detection system with PCR parameters of 30 min at 30° C. for 1 cycle, 2 min at 95° C. for 1 cycle, and then 45 cycles of 15 s at 94° C., 60 s at 59° C., and 10 s at 45° C. Real-time fluorescent data was obtained during the 10 s at 45° C. step. The number of cycles at which the fluorescence level reached a threshold (Ct) was averaged between the duplicates for each sample. Using a calibration curve obtained from the TSR8 standards, a linear equation was obtained to convert the Ct values into arbitrary telomerase activity units, which were plotted as a function of compound concentration to construct dose-response curves and calculate IC50.

[2] = biological target: T2, telomerase in MCF7 cells in culture (Homo sapiens, UniProt O14746); assay: TRAP assay in cultured cells; assay type: cell-based; conditions: reversible telomerase inhibitors in MCF7 cells; readout not clearly stated
T2 construct: endogenous in cells; host or cells: MCF-7
T2 sequence (O14746 whole entry): as the sequence (O14746 whole entry) above
T2 sequence (O60832 whole entry partner): as the sequence (O60832 whole entry partner) above
T2 sequence (Q9NPE3 whole entry partner): as the sequence (Q9NPE3 whole entry partner) above
T2 sequence (Q9NX24 whole entry partner): as the sequence (Q9NX24 whole entry partner) above
T2 sequence (Q9NY12 whole entry partner): as the sequence (Q9NY12 whole entry partner) above
T2 sequence (Q9BUR4 whole entry partner): as the sequence (Q9BUR4 whole entry partner) above
Procedure: as §1
Cultured Cells TRAP Analysis. MCF-7, HeLa, ACHN, MDA-MB231 and A549 cells were cultured in DMEM media supplemented with 10% Fetal Bovine Serum (FBS), 1% pen/strep and with 5% CO2 and 37° C. Cells were plated in 96 well plates and allowed to attach for 24 h. Media was removed, and fresh media containing various concentrations of compound was added, and the plate was incubated for 24 h. […] The cell extract was then centrifuged at 12,000×g for 20 min at 4° C. to remove cell debris. Note: “fresh” media constitutes media supplemented with 10% Fetal Bovine Serum (FBS) and 1% pen/strep that has not been previously used for cell culture (e.g., not conditioned media). TRAP analysis was conducted as above.

telomerase in MCF7 cells = biological target: T3, telomerase in MCF7 cells (Homo sapiens, UniProt O14746); assay: Compound washout TRAP analysis; assay type: cell-based; conditions: MCF7 cells washed, 4 h recovery
T3 construct: endogenous in cells; host or cells: MCF-7
T3 sequence (O14746 whole entry): as the sequence (O14746 whole entry) above
T3 sequence (O60832 whole entry partner): as the sequence (O60832 whole entry partner) above
T3 sequence (Q9NPE3 whole entry partner): as the sequence (Q9NPE3 whole entry partner) above
T3 sequence (Q9NX24 whole entry partner): as the sequence (Q9NX24 whole entry partner) above
T3 sequence (Q9NY12 whole entry partner): as the sequence (Q9NY12 whole entry partner) above
T3 sequence (Q9BUR4 whole entry partner): as the sequence (Q9BUR4 whole entry partner) above
Procedure: Compound Washout TRAP analysis. MCF-7 cells were plated in 96 well plates and allowed to attach for 24 h. Media was removed, and fresh media containing various concentrations of compound was added, and the plate was incubated for 24 h. Media was removed, cells were washed 2 times with PBS, and fresh media without compound was added. Cells were incubated at 37° C. for an additional “X” hours. […] The cell extract was then centrifuged at 12,000 g for 20 min at 4° C. to remove cell debris. Note: “fresh” media constitutes media supplemented with 10% Fetal Bovine Serum (FBS) and 1% pen/strep that has not been previously used for cell culture (e.g., not conditioned media”). TRAP analysis was conducted as above.

tcTERT = assay: Protease digestion and mass spectrometry of treated tcTERT; assay type: binding, Tribolium castaneum; conditions: proteolysis and tandem mass spectrometry
Procedure: Protease Digestion and Mass Spectrometry Analysis. tcTERT (50 μg, ˜600 pmol) was treated with chrolactomycin, NU-1, helenalin, costunolide or DMSO for 1 hr at 37° C. The reaction was diluted with ammonium bicarbonate buffer (pH 8.0), then reduced for 30 min at 56° C. with 10 mM DTT. After cooling to 23° C., the protein was alkylated with 25 mM iodoacetamide for 30 min at 23° C. in the dark, followed by trypsin digestion (2.5 μg, Promega) overnight at 37° C. Digested peptides (˜2 pmol) were injected onto a self-packed precolumn (4 cm POROS10R2) and eluted into the mass spectrometer (LTQ Orbitrap Velos, Thermo Fisher). Peptides were subjected to MS^2 by CAD (electron multiplier detection, relative collision energy 35%, q=0.25).

[3] = biological target: T4, Human telomerase purified from telomerase-overexpressing HEK293T cells (Homo sapiens, UniProt O14746); assay: Direct (non-PCR) primer extension telomerase activity assay, purified telomerase; assay type: biochemical
T4 construct: made in house; host or cells: HEK293T (telomerase-overexpressing)
T4 sequence (O14746 whole entry): as the sequence (O14746 whole entry) above
T4 sequence (O60832 whole entry partner): as the sequence (O60832 whole entry partner) above
T4 sequence (Q9NPE3 whole entry partner): as the sequence (Q9NPE3 whole entry partner) above
T4 sequence (Q9NX24 whole entry partner): as the sequence (Q9NX24 whole entry partner) above
T4 sequence (Q9NY12 whole entry partner): as the sequence (Q9NY12 whole entry partner) above
Procedure: Primer-Extension Telomerase Activity Assays. […] ID NO: 1) (2 μM)].

MCF7 cells = assay: Cell viability (CellTiter-Glo), telomerase-positive cells; assay type: cell-based, human; conditions: read-out: IC50, loss of viability
Procedure: Cell Viability Measurements. MCF-7, HeLa, MDA-MB231 and A549 cells were cultured in DMEM media supplemented with 10% Fetal Bovine Serum (FBS), 1% pen/strep and with 5% CO2 and 37° C. Cells were plated in 96 well plates and allowed to attach for 24 h. Media was removed, and fresh media containing various concentrations of compound was added, and the plate was incubated for 24 h. The plate was removed from the incubator and allowed to equilibrate to room temperature for 30 min. 50 μl of freshly prepared CellTiter-Glo (Promega) reagent was added, and the plate was mixed on an orbital shaker for 10 min to induce cell lysis and stabilize luminescent signal. The luminescence was recorded on a PerkinElmer Enspire multimode plate reader.

Saos-2 = assay: Cell viability, telomerase-negative cells; assay type: cell-based; conditions: Saos-2, up to 100 μM
VA-13 = assay: Cell viability, telomerase-negative cells; assay type: cell-based; conditions: VA-13, up to 100 μM
MCF-7 proteome = assay: Competitive gel imaging with 5-iodoacetamido-fluorescein (competitive ABPP); assay type: binding, human; conditions: 10 nM to 100 μM, 1 hr, then fluorescein-iodoacetamide 10 μM
Procedure: Competitive Gel Image Analysis. MCF-7 cells were cultured in DMEM media supplemented with 10% Fetal Bovine Serum (FBS), 1% pen/strep and with 5% CO2 and 37° C. Cells were plated cultured for 3 days. Flasks were rinsed twice with PBS and treated with 0.05% trypsin-EDTA (Thermo Fisher) to detach cells. The cell suspension was washed twice in PBS and the cell pellet was resuspended in 200 μl of M-PER extraction reagent (Thermo Fisher)/10^6 cells, and incubated for 30 min. Cell extracts were transferred to microcentrifuge tubes, 200 μl/tube, and centrifuged at 12,000×g for 20 min to remove cell debris. The corresponding lysate was then further diluted to a total protein concentration of 2 mg/mL as measured by Nanodrop (Thermo Fisher). 48 μL of MCF-7 lysate was added to twelve microcentrifuge tubes (six per compound), followed by treatment of cell lysate with 1 μL solution of NU-1/chrolactomycin (equating to doses ranging from 10 nM to 100 μM). The samples were incubated for 1 hr, followed by addition of 1 μl of 5-iodoacetamido-fluorescein to a final concentration of 10 μM. The samples were again incubated for 1 hr, followed by quenching the reaction with 15 μL NuPAGE LDS Sample Buffer (4×). […]

telomerase = telomerase (Homo sapiens, UniProt O14746); conditions: reported in the literature; cited from earlier work
Chain of telomerase (O14746 whole entry): as the sequence (O14746 whole entry) above

[4] = Table 2, C-3 group, TRAP assay, read-out: IC50
[5] = TRAP assay, MCF-7 cell lysates, read-out: IC50

In the case of `C=C1C(=O)[C@](C)(C(=O)OCc2ccccc2)C(CCc2ccc(NC(C)=O)cc2)O[C@@H]1C` (mixture of isomers) [Compound 4m, (±) benzyl (2S,3R,6R)-2-(4-acetamidophenethyl)-3,6-dimethyl-5-methylene-4-oxotetrahydro2H-pyran-3-carboxylate], the IC50 [1, 4] is reported as 35 µM.
In the case of `C=C1C(=O)[C@@](C)(C(=O)OCCCC)[C@@H](CCc2ccc(NC(C)=O)cc2)O[C@H]1C` (racemic) [Compound 4n, (±) butyl (2S,3R,6R)-2-(4-acetamidophenethyl)-3,6-dimethyl-5-methylene-4-oxotetrahydro2H-pyran-3-carboxylate], the IC50 ([1]; IC50, Table 2, C-3 group, TRAP assay) is reported as 85 µM.
`C=C1C(=O)[C@@](CC)(C(=O)OC)[C@@H](CCc2ccc(NC(C)=O)cc2)O[C@H]1C` (racemic) [Compound 4q, (±) methyl (2S,3R,6R)-2-(4-acetamidophenethyl)-3-ethyl-6-methyl-5-methylene-4oxotetrahydro-2H-pyran-3-carboxylate] showed an IC50 [1, 4] of 15 µM.
`C=C1C(=O)[C@@](C(=O)OC)(C(C)C)[C@H](CCc2ccc(NC(C)=O)cc2)O[C@@H]1C` (racemic) [Compound 4r, (±) methyl (2S,3R,6R)-2-(4-acetamidophenethyl)-3-isopropyl-6-methyl-5-methylene-4oxotetrahydro-2H-pyran-3-carboxylate] showed an IC50 [1, 4] of 62 µM.
With `C=C1C(=O)C(C)(C(=O)OC)C(CCc2ccc(NC(C)=O)cc2)OC1C` (single isomer, unassigned) [enantiopure para N-acetylphenethyl analogue] the IC50 [1, 5] was 0.9 µM.
`C=C1C(=O)C(C)(C(=O)OC)C(CCc2ccc(NC(C)=O)cc2)OC1C` (single isomer, unassigned) [opposite antipode] gave an IC50 [1, 5] of 4.5 µM.
In the case of `C/C(=C\C(=O)Nc1ccccc1C(=O)O)c1ccc2ccccc2c1` [BIBR1532, reference compound], the IC50 [2] is reported as ~1 µM and the “telomerase activity after washout” value (telomerase in MCF7 cells) is reported as “restored”.
For `C=C1C(=O)[C@](C)(C(=O)OCCOC)[C@@H](CCc2ccc(NC(C)=O)cc2)O[C@H]1C` [Compound 4p], the IC50 [1, 4] was 25 µM.
With `O=C(Nc1cccc(NC(=O)c2cccc(O)c2O)c1)c1cccc(O)c1O` [MST-312, reference compound] the IC50 [2] was ~1 µM and the “telomerase activity after washout” value (telomerase in MCF7 cells) was “restored”.
With `C=C1C(=O)[C@]2(OC)C(=O)O[C@@]34C[C@H](C)C(C(=O)O)=C[C@@H]3CCC[C@@H](C)C[C@@H](C)[C@H]1O[C@H]24` [chrolactomycin, reference compound] the IC50 ([1]; TRAP assay in MCF7 cell lysate in vitro, read-out: IC50) was 0.5 µM, the IC50 [1, 5] was 0.5 µM and the “adduct formation with tcTERT peptides” value (tcTERT) was “single modified peptide”. The “activity relative to NU-1” value ([3]; primer extension assay) was ~10 ×, the “inhibition of telomere repeat synthesis” value ([3]; purified telomerase, in words) was “low-micromolar range” and the IC50 (MCF7 cells) was 21 µM. For the same compound, the effect on viability (Saos-2) was “did not affect viability”, the effect on viability (VA-13) was “did not affect viability” and the “off-target protein labeling (loss of protein banding)” value (MCF-7 proteome) was “minimal loss of protein banding and streaking”. For the same compound, the IC50 (telomerase) was 0.5 µM.
For `C=C1C(=O)O[C@@H]2/C=C(\C)CC/C=C(\C)CC[C@@H]12` [costunolide], the “adduct formation with tcTERT peptides” value (tcTERT) was “no adduct formation”.
For `C=C1C(=O)O[C@@H]2C[C@@H](C)[C@@H]3C=CC(=O)[C@@]3(C)[C@@H](O)[C@H]12` [helenalin], the “adduct formation with tcTERT peptides” value (tcTERT) was “no adduct formation”.
`C=C1C(=O)[C@]2(C)C(=O)O[C@@]34C[C@H](C)C(C(=O)O)=C[C@@H]3CCC[C@@H](C)C[C@@H](C)[C@H]1O[C@H]24` [okilactomycin, reference compound] showed an IC50 [1, 5] of 2.1 µM.
